Test results: patent EP4729518A1, “CRYSTAL FORM OF METHIONINE ADENOSYLTRANSFERASE 2A HETEROCYCLIC INHIBITOR, PREPARATION METHOD THEREFOR, AND USE THEREOF” (Nanjing Chia Tai Tianqing Pharmaceutical Co., Ltd., priority 2023, dated 2024)

Columns and labels:
[1] = Solid state stability of crystal forms (XRD and HPLC); format: physicochemical
Procedure: Samples of the crystal forms B, H, and L were placed under the conditions of 25 °C/60% RH and 40 °C/75% RH for 17 days, and then the physicochemical stability of the samples was tested using XRD and HPLC. Table 24: Summary of solid state stability evaluation of crystal forms

[2] = Suspension stirring competition among anhydrous crystal forms (XRD); format: physicochemical; details: different solvents and temperatures (room temperature/50 °C)
Procedure: The interconversion relationships among the various anhydrous crystal forms were investigated using a suspension stirring competition method in different solvent systems at different temperatures. 1) Equal masses (3-4 mg) of the various anhydrous crystal forms (crystal forms A/B/C/G/H/L/M) were separately weighed and added to HPLC vials. To each vial, 1.0 mL of the corresponding solvent that had been pre-saturated with the crystal form G at the corresponding temperature was added. The resulting suspensions were magnetically stirred (1000 rpm) at room temperature or 50 °C. Samples were taken at 10 min, 3 d, and 7 d, and then centrifuged to collect the solids, which were then subjected to XRD analysis. Table 25: Summary of results of suspension stirring competition test among various anhydrous crystal forms
2) Equal masses (about 5 mg) of the various anhydrous crystal forms (crystal forms B/H/L) were separately weighed and added to HPLC vials. To each vial, 1.0 mL of a solvent that had been pre-saturated with the crystal form G at the corresponding temperature was added. The resulting suspensions were magnetically stirred (1000 rpm) at room temperature or 50 °C. Samples were taken at 10 min, 6 h, 1 d, 4 d, and 7 d, and then centrifuged to collect the solids, which were then subjected to XRD analysis. […]

[3] = Heating experiment via DSC followed by XRD; format: physicochemical; details: Heating temperature 250 °C
Excerpt: The heated samples were then collected and subjected to XRD analysis. Table 27: Summary of heating test results for various crystal forms

[4] = Long-term stability study (XRD and HPLC); format: physicochemical; details: 40±2 °C/75%±5% RH
Procedure: A sample of the crystal form L was placed under the conditions of 40±2 °C/75%±5% RH, and the physicochemical stability of the sample was tested using XRD and HPLC.

MAT2A enzyme = target: T1, MAT2A enzyme (Homo sapiens, UniProt P31153); assay: MAT2A enzymatic assay (Biomol Green, OD620); format: biochemical
T1 construct: purchased BPS 71401
Procedure: • a) First, a 5× MAT2A assay buffer (250 mM Tris-HCl, pH 8.0; 250 mM KCl; 75 mM MgCl2; 0.025% BSA; 0.05% Brij35; 1.5 mM EDTA) was prepared and partially diluted to 1× for later use. • b) Preparation and addition of MAT2A enzyme (BPS, 71401): The MAT2A enzyme was diluted to 3.674 ng/µL (1.67×, final concentration: 2.20 ng/µL) with the 1× MAT2A assay buffer. Using a BioTek (MultiFlo FX) automated dispenser, the 1.67× MAT2A enzyme solution was added to the compound test wells and negative control wells of a plate at 15 µL/well, and meanwhile, the 1× MAT2A assay buffer was added to the blank control wells at 15 µL/well. • c) Preparation and addition of compounds: The test compound was diluted from a 10 mM stock solution to 100 µM with DMSO, and the positive control drug AGI-24512 was diluted under the same conditions. Using a Tecan compound dispenser (D300e), the dilutions were automatically dispensed into each well according to a preset concentration gradient. The dispensed volume was minimal and considered negligible. The concentration gradient started at 1 µM (1/2 log dilution), and a total of 8 gradient points were set. The plate was centrifuged at 2500 rpm for 30 s and incubated at 25 °C for 30 min. • d) Preparation of ATP: 10 mM ATP (Sigma, A7699) was diluted to 700 µM with the 1× MAT2A assay buffer for later use. • e) Preparation and addition of mixed solution of substrate and ATP: A mixed solution was prepared containing the 5× MAT2A assay buffer (3 µL/well), 750 µM L-methionine (Adamas, 01100469) (2.5 µL/well), 700 µM ATP (2.5 µL/well), and double distilled water (2 µL/well). The total amount of the required mixed solution was prepared according to the number of detection wells. Using a BioTek (MultiFlo FX) automated dispenser, the mixed solution was added at 10 µL/well. The resulting mixture was centrifuged at 2500 rpm for 30 s and allowed to react at 25 °C for 150 min. • f) Addition of Biomol Green detection reagent: Using a BioTek (MultiFlo FX) automated dispenser, Biomol Green (Enzo, BML-AK111) was added at 50 µL/well. The plate was centrifuged at 2500 rpm for 30 s and incubated at 25 °C for 20 min. • g) After the reaction was completed, the OD620 values were measured using a Perkin Elmer (Envision 2105) multimode microplate reader.
The inhibition rate was calculated using the following formula: Inhibition rate % = (ODmax −ODsample)/(ODmax −ODmin) × 100% [formula] where: • ODsample represents the OD620 value of the sample well; • ODmin represents the mean OD620 value of the blank control wells containing no enzyme and no test compound; • ODmax represents the mean OD620 value of the negative control wells containing enzyme but no compound. […]

HCT116 MTAP-/- cells = assay: Cellular assay: cell proliferation inhibition (CellTiter-Glo); format: cell-based; details: Homo sapiens, HCT-116; incubated for 120 h
Procedure: HCT116 MTAP-/- cells (purchased from Horizon Discovery) (a human colorectal cancer cell strain with deletion of MTAP gene) were cultured in a medium containing RPMI 1640 + 10% FBS (fetal bovine serum). On day 0 of the experiment, the viable cell density of the aforementioned cells in the logarithmic growth phase was adjusted to 5000 cells/mL, and then the cells were seeded into a 96-well plate at 100 µL/well, with blank group wells set up in parallel. The seeded cell plate was placed in an incubator at 37 °C with 5% CO2 and incubated overnight.
On day 1 of the experiment, the cell plate incubated overnight was taken out, and the supernatant was discarded. A serum-free RPMI 1640 medium was then added at 80 µL/well, and the plate was placed in an incubator for starvation culture for 4 h. The test compound was dissolved in DMSO (dimethyl sulfoxide) to prepare a 10 mM compound stock solution. After the starvation was completed, the cell plate was taken out, and a medium containing RPMI 1640 + 20% FBS was further added at 80 µL/well. The cell plate was placed on an automated dispenser D300e (Tecan), with the program for compound addition set as follows: the highest concentration of the compound tested was 30 µM, and 3-fold gradient dilution was performed with DMSO to give a total of 10 concentrations; two replicate wells were set for each concentration; the final concentration of DMSO in each well of the 96-well plate was 0.3% (v/v). The pre-prepared 10 mM test compound stock solution was taken and then added by running the aforementioned drug addition program. After the drug addition was completed, the cell plate was placed in an incubator and incubated for 120 h.
On day 6 of the experiment, the cell plate was taken out, and CellTiter-Glo® (purchased from Promega) was added at 50 µL/well. The […] was measured on Envision (PerkinElmer) according to the operation procedures in the instructions. […]

[5] = In vivo pharmacokinetic study in ICR mice; details: mouse, PO @ 10 mg/kg, male ICR mice, plasma; for AUC(0-t): read-out: Area under the curve AUC0-t; for Cmax: read-out: Peak concentration Cmax
Procedure: Male ICR mice (6-10 weeks old, Vital River Laboratory Animal Technology Co., Ltd.) were housed in an SPF animal room at a temperature of 20-25 °C, with a relative humidity of 40%-70%, and under a 12/12-hour light/dark cycle. The animals were given free access to water and food. After at least 5 days of normal feeding, mice with good physical signs as determined by a veterinarian could be included in this experiment. Each mouse was marked with a number on the tail.
The day before the experiment, the mice were fasted overnight, with free access to water. They were fed 4 h after administration. The compound was prepared into a 20 mg/mL stock solution with DMSO. An appropriate volume of the 20 mg/mL stock solution was accurately pipetted into a glass flask, and then an appropriate volume of PEG400 was added. The mixture was mixed well, and then propylene glycol (PG) was added. The ratio of vehicles in the final formulation was DMSO:PEG400:PG (v/v/v) = 5:65:30. This process yielded a test dosing solution of each test compound at a concentration of 1 mg/mL.
The mice were weighed, and then the theoretical administration volume for each mouse was calculated according to the following formula. The actual administered dose for each mouse and the time of blood sample collection should be recorded in detail in the corresponding table. Theoretical administration volume(mL); = ((Dose(mg⋅kg^−1))/(Concentration of test solution(mg⋅mL^−1))) × Animal body weight(kg) [formula]
On the day of the experiment, the test dosing solution of each test compound was intragastrically administered to the mice in each group at a dose of 10 mg/kg. At each time point after administration, about 40 µL of blood was collected from the orbit of each mouse and then placed into an EDTA-K2 anticoagulation tube. The whole blood samples were centrifuged at 1500-1600 g for 10 min. The separated plasma was stored in a freezer at -40 °C to -20 °C for biological sample analysis.
The concentrations of the compounds in the biological samples obtained from the experiment were determined using an LC-MS/MS analysis method. Pharmacokinetic parameters were calculated using a non-compartmental model in Pharsight Phoenix 7.0.

T1 sequence (P31153 whole entry): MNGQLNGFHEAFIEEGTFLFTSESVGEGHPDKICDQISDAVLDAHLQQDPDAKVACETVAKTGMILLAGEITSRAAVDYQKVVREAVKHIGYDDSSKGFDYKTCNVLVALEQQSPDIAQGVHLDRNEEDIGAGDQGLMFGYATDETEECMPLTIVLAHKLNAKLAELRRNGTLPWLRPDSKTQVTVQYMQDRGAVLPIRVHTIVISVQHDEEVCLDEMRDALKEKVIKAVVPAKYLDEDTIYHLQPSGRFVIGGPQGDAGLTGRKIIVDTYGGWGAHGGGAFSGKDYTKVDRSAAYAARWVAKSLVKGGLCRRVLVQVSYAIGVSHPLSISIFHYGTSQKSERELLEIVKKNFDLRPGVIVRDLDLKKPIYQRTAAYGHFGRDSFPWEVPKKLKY

## Cn1cc2cc(-c3nn4ccc(C5CC5)nc4c(-c4ccc(OC(F)F)cc4)c3=O)ccc2n1 [Crystal form L, 2-cyclopropyl-9-[4-(difluoromethoxy)phenyl]-7-(2-methyl-2H-indazol-5-yl)-8H-pyrimido[1,2-b]pyridazin-8-one]
[1]; 0 day
  Crystal form change: No
  Purity: 98.60%
[1]; 25 °C/60% RH for 17 days
  change in crystal form or purity: no change in either crystal form or purity
[1]; 25 °C/60% RH/17 days
  Crystal form change: No
  Purity: 99.04%
[1]; 40 °C/75% RH for 17 days
  change in crystal form or purity: no change in either crystal form or purity
[1]; 40 °C/75% RH/17 days
  Crystal form change: No
  Purity: 99.00%
[2]
  stability in suspension stirring competition: stable crystal form
[3]
  After heating (crystal form): Crystal form A
[4]; 0 days
  Crystal form change: No
  Water content: Undetectable
[4]; 1 month
  Crystal form change: No
  Related substance Total impurities: 0.22%
  Water content: Undetectable
[4]; 2 months
  Crystal form change: No
  Related substance Total impurities: 0.26%
[4]; 3 months
  Crystal form change: No
  Related substance Total impurities: 0.26%
[4]; 6 months
  Crystal form change: No
  Related substance Total impurities: 0.27%
  Water content: Undetectable

## Cn1cc2cc(-c3nn4ccc(C5CC5)nc4c(-c4ccc(OC(F)F)cc4)c3=O)ccc2n1 [Example 3, 2-Cyclopropyl-9-[4-(difluoromethoxy)phenyl]-7-(2-methyl-2H-indazol-5-yl)-8H-pyrimido[1,2-b]pyridazin-8-one]
MAT2A enzyme
  IC50: 0.0107 µM
HCT116 MTAP-/- cells
  IC50: 0.0143 µM
[5]
  AUC(0-t): 78.3 µg·h/mL
  Cmax: 4.21 µg/mL

## O=c1c(-c2ccc3c(c2)OCO3)nn2ccc(C3CC3)nc2c1-c1ccc2c(c1)OCO2 [Example 2, 7,9-Bis(benzo[d][1,3]dioxol-5-yl)-2-cyclopropyl-8H-pyrimido[1,2-b]pyridazin-8-one]
MAT2A enzyme
  IC50: 0.0114 µM
HCT116 MTAP-/- cells
  IC50: 0.119 µM
[5]
  AUC(0-t): 8.73 µg·h/mL
  Cmax: 1.37 µg/mL

## O=c1c(-c2ccc(OC(F)F)cc2)nn2ccc(C3CC3)nc2c1-c1ccc(OC(F)F)cc1 [Example 1, 2-Cyclopropyl-7,9-bis[4-(difluoromethoxy)phenyl]-8H-pyrimido[1,2-b]pyridazin-8-one]
MAT2A enzyme
  IC50: 0.00644 µM
HCT116 MTAP-/- cells
  IC50: 0.26 µM
[5]
  AUC(0-t): 45.5 µg·h/mL
  Cmax: 2.07 µg/mL
